Experimental data: patent publication US9234025B2, “Extracellular allosteric inhibitor binding domain from a tyrosine kinase receptor” (SANOFI, priority 2009, dated 2016)

Assays:
[1] = target: T1, ECD of FGFR1 (FGFR1^∂123) (Homo sapiens, UniProt P11362); assay: STD-NMR / 1D-NMR binding assay, FGFR1 ECD
T1 construct: (ECD; amino acids: 39-358) of the human FGFR1 gene (P11362); His-tag followed by TEV protease cleavage site (N); made in house; host or cells: E. coli BL21(DE3)
Procedure: The extracellular domain (ECD; amino acids: 39-358) of the human FGFR1 gene (P11362) was PCR amplified and cloned into E. coli vector pETTEV (with a N-terminal His-tag followed by a TEV protease cleavage site), using NdeI and BamHI restriction sites. For protein production, the resulting plasmid (pET FGFR1 D1D2D3) was transformed into E. coli BL21(DE3) (Novagene). Cells were grown at 37° C. until the OD600 reached 0.6 and recombinant protein production was induced by adding 1 mM IPTG (isopropyl-b-D-thiogalactopyranoside). After 4 hours induction, cells were harvested and stored at −80° C. until usage. The cell pellet (1 L culture) was thawed and resuspended in 50 ml buffer 1 (20 mM Tris/HCl, pH 7.5, 200 mM NaCl) containing lysozyme (2 mg), and 40 U benzonase (Merck). […] Complex formation was analyzed by size exclusion chromatography and subsequent analysis on SDS-PAGE.
All STD- and 1D-NMR experiments were carried out on a BRUKER three-channel DRX600 and on a BRUKER four-channel DRX800 spectrometer at the standard temperature of 298 K and were referenced to the internal standard 3-Trimethyl-2,2,3,3-tetradeuteropropionate-sodium salt (TSP). […] For protein ligand 1D STD NMR measurements spectra were recorded with 1 mM ligand SSR128129E (100 mM DMSO stock solution) and […] protein with weak 2s RF irradiation on separated protein methyl resonances. […]

[2] = target: T2, TNF-R1 extracellular protein (Homo sapiens, UniProt P19438); assay: STD-NMR binding assay, TNF-R1 control; settings: STD-NMR specificity control
T2 construct: made in house

FGFR2^WT = target: T3, FGFR2^WT (Homo sapiens, UniProt P21802); assay: FGF2-induced ERK1/2 phosphorylation in HEK293 cells, FGFR2 WT; type: cell-based; settings: stable HEK293 FGFR2^WT cells; FGF2 0.5 ng/ml 5 min; average±sem, three experiments; read-out: IC50 value, inhibition of FGF2 induced ERK1/2 phosphorylation
T3 construct: expressed in transfected cells
Procedure: HEK293 cells were either transiently of stably transfected (using FuGENE 6, Roche) with hFGFR2IIIca or hFGFR2IIIca-Y328D cloned in pcDNA3 (Invitrogen). Stably transfected cells were grown in G418 (400 μg/ml) containing medium. Before stimulation, the cells were starved overnight in DMEM (0% serum), and pre-incubated with […] at the required concentration. The cells were subsequently stimulated with FGF2 (concentration between 0.5-10 ng/ml) for 5 min at 37° C. with or without SSR or SU5402 at 1 μM. After washing with ice-cold phosphate-buffered saline containing phosphatase inhibitors (Roche), cells were lysed in RIPA buffer (Tris 30 mM HCl pH 7.5, 150 mM NaCl, 1 mM EDTA, 1% triton-X, 0.5% w/v deoxycholate, containing phophatase and protease inhibitors as described by the manufacturer (Roche)). Cell lysates were centrifuged at 12,000 g for 10 min, and the supernatants were collected. Proteins were separated on Novex polyacrylamide gels (Invitrogen, Carlsbad, Calif.) and subsequently transferred onto Hybond ECL nitrocellulose membranes (Amersham Pharmacia). Following incubation with 5% non-fat milk powder in PBS, the membranes were incubated overnight at 4° C. with the following antibodies: phospho-ERK1/2 (CST:9101), phospho-FRS2 (CST:3861), phospho-PLCγ (CST:2821) and FGFR2 (F0300, Sigma).

T1 sequence (P11362 39-358): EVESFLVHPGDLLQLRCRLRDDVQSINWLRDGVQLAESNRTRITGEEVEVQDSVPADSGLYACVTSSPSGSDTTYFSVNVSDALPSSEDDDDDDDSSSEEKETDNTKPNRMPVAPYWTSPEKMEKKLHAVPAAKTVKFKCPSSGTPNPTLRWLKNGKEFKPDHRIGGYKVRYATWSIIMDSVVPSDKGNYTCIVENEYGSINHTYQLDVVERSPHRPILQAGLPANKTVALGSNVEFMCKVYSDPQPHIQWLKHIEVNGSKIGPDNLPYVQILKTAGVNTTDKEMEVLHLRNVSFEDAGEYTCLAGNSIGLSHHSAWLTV
T3 sequence (P21802 22-821): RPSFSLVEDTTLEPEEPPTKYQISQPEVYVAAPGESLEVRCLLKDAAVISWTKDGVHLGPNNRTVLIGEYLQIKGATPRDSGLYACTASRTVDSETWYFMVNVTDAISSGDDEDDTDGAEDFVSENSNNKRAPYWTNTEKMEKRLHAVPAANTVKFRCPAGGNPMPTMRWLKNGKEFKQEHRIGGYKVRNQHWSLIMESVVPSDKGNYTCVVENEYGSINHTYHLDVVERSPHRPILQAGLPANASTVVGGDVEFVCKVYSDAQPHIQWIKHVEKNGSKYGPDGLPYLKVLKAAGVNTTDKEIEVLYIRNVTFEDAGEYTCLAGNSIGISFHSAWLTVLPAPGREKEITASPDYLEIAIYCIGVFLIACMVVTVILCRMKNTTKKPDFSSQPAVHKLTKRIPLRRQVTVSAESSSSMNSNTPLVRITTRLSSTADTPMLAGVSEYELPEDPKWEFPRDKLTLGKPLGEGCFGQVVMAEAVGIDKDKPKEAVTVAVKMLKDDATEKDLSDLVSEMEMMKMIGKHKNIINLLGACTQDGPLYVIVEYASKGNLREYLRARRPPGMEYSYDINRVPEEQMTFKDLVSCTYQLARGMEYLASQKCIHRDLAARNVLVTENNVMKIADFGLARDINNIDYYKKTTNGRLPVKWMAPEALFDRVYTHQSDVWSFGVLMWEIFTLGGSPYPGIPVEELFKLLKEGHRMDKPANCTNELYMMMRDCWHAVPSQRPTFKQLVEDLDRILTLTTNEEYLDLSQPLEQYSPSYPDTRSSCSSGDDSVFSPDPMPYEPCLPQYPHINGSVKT
T2 sequence (P19438 30-211 limits assumed): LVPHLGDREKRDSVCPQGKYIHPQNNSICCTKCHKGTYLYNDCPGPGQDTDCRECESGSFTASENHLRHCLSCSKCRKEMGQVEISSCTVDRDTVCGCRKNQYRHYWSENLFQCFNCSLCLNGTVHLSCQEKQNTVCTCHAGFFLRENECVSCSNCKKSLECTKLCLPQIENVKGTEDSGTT

SMILES: COc1c(C)c(C(=O)c2ccc(N)c(C(=O)[O-])c2)n2ccccc12.[Na+] [SSR]
- binding to ECD of FGFR1 ([1]; STD-NMR, confirmed by 1D-NMR peak broadening): bound
- STD-NMR signal of SSR to the FGFR with heparin analogue ([1]; presence or absence of sucrose octasulphate (SOS)): comparable signal
- binding to TNF-R1 extracellular protein [2]: no binding is observed
- IC50 (FGFR2^WT): 28 ± 12 nM
